Data taken from publication PMC12649549, “Sequence Permutation Generated Lysine and Tryptophan-Rich Antimicrobial Peptides with Enhanced Therapeutic Index” (Antibiotics, 2025).
Where two headings read alike, the source gives them in different places.

How the values were obtained:
[1] = tested on: Both Gram-positive and -negative bacteria; test: Geometric mean MIC, therapeutic index and fold changes of MIC, whole panel of strains; type: cell-based; settings: for Therapeutic Index (TI) G−/+: HC10/GM, both Gram-positive and -negative bacteria; for weakening of antibacterial efficacy (MIC): LYM broth
Method: In this study, we aimed to investigate the potential of W5K series peptides for therapeutic use. To evaluate their efficacy for antibacterial therapy, we used the Therapeutic Index (TI) as a measure of their cell selectivity. The TI was calculated as the ratio of the concentration causing 10% hemolysis of human red blood cells (HC10) to the geometric mean minimum inhibitory concentration (GM) of the peptides against both Gram-negative and Gram-positive bacteria. This parameter was used to quantitatively assess the balance between antibacterial potency and cytotoxicity among the W5K derivatives.
(§1) The antibacterial activities of the peptides in Müller-Hinton (MH) broth and modified LYM broth were determined using the standard broth microdilution method as per Clinical and Laboratory Standards Institute (CLSI) guidelines. The LYM broth was prepared with specific components and adjusted to different conditions, including varying concentrations of NaCl and MgCl2, and different pH levels. To prepare the LYM broth, 5.4 mM KCl, 5.6 mM Na2HPO4, 0.5 mM MgSO4, and 1.0 mM sodium citrate were added. Additionally, 0.4 mg of ZnCl2, 2.0 mg of FeCl3·6H2O, 0.1 mg of CuSO4·5H2O, 0.1 mg of MnSO4·H2O, 0.1 mg of Na2B4O7∙10H2O, 700 mg of amino acid mixtures without tryptophan (Takara Bio Inc., San Jose, CA, USA), and 20 mg of L-tryptophan were added per liter of medium. The pH was adjusted to 7.4, and a vitamin mixture (100X, Sigma) and glucose concentration of 2% were added. For different conditions of LYM broth, NaCl concentrations of 300, 200, 150, and 50 mM, MgCl2 concentrations of 2.5, 1.5, and 0.5 mM, and pH levels of 6.5, 5.5, and 4.5 were adjusted. Bacterial strains were incubated in MH broth overnight, regrown, and diluted to a final concentration of 5 × 10^5 CFU/mL. Peptides were added to each well at final concentrations of 50, 25, 12.5, 6.25, 3.13, 1.56, and 0.78 µg/mL, and 99 µL of diluted microbes was loaded into each well of a polypropylene 96-well plate. […] The Morpheus HeatMap software (https://software.broadinstitute.org/morpheus/) was used to display MIC values on a color scale. All experiments were independently repeated three times.

S. aureus ATCC 33593 = tested on: S. aureus ATCC 33593
In short: (§2)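 Salt and pH tolerance was assessed by determining MICs in LYM medium containing 50–300 mM NaCl, 0.5–2.5 mM MgCl2, or at pH 4.5–6.5, alongside MH broth. The inoculum was 5 × 10^5 CFU/mL.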

S. aureus ATCC 33591 = tested on: S. aureus ATCC 33591
In short: as §2

[2] = tested on: Pseudomonas aeruginosa Migula (ATCC 27853)
In short: as §2

S. aureus ATCC 33592 = tested on: S. aureus ATCC 33592
Method: The antibacterial and salt-resistant activity of the peptides was tested using Escherichia coli (ATCC 25922), Pseudomonas aeruginosa Migula (ATCC 27853), Acinetobacter sp. (BCRC number 14B0091, BCRC number 14B0097, and BCRC number 14B0100), and Staphylococcus aureus sp. strains (ATCC 25923, ATCC 33591, ATCC 33592, ATCC 33593, and ATCC 6538). All bacteria were obtained from the Food Industry Research and Development Institute (Hsinchu, Taiwan) and cultured in sterilized Müller-Hinton (MH) broth at 37 °C and 200 rpm for 8 h. The inoculum concentrations were determined by measuring the optical density at 600 nm (OD 600 = 1, approximately 10^8 CFU/mL) using an Ultrospec 2100 pro UV-Visible spectrophotometer (Biochrom Ltd., Cambridge, UK) after 8 h of culture.
as §1, with “For different conditions of LYM broth, NaCl concentrations of 300, 200, 150, and 50 mM, MgCl2 concentrations of 2.5, 1.5, and 0.5 mM, and pH levels of 6.5, 5.5, and 4.5 were adjusted.” left out

[3] = LYM broth, 0 mM NaCl, 16 h, 37 °C
[4] = LYM broth, 50 mM NaCl, 16 h, 37 °C
[5] = LYM broth, 100 mM NaCl, 16 h, 37 °C
[6] = LYM broth, 200 mM (NaCl), 16 h, 37 °C
[7] = LYM broth, 300 mM (NaCl), 16 h, 37 °C
[8] = MH broth, 5 × 10^5 CFU/mL, 16 h, 37 °C, repeated three times

## Ac-KKKKWRKWLKWLA-NH2 [Peptide W5K11]
[1]
  GM G−/+ (geometric mean of the MIC values): 3.3 µg/mL
  Therapeutic Index (TI) G−/+: 21.2
[1]; 300 mM NaCl
  weakening of antibacterial efficacy (MIC): up to 3 fold
[1]; MgCl2 rising above 0.5 mM
  weakening of antibacterial efficacy (MIC): up to 2 fold
S. aureus ATCC 33593; [3]
  MIC: 3.13 µg/mL
S. aureus ATCC 33593; LYM broth, 0.5 mM MgCl2
  MIC: 3.13 µg/mL
S. aureus ATCC 33593; LYM broth, 1.5 mM MgCl2
  MIC: 3.13 µg/mL
S. aureus ATCC 33593; LYM broth, 2.5 mM MgCl2
  MIC: 3.13 µg/mL
S. aureus ATCC 33593; [4]
  MIC: 3.13 µg/mL
S. aureus ATCC 33593; [5]
  MIC: 3.13 µg/mL
S. aureus ATCC 33593; [6]
  MIC: 3.13 µg/mL
S. aureus ATCC 33593; [7]
  MIC: 6.25 µg/mL
S. aureus ATCC 33593; LYM broth, pH 4.5
  MIC: 3.13 µg/mL
S. aureus ATCC 33593; LYM broth, pH 5.5
  MIC: 1.56 µg/mL
S. aureus ATCC 33593; LYM broth, pH 6.5
  MIC: 1.56 µg/mL
S. aureus ATCC 33593; [8]
  MIC: 6.25 µg/mL
S. aureus ATCC 33591; [3]
  MIC: 3.13 µg/mL
S. aureus ATCC 33591; LYM broth, 0.5 mM MgCl2
  MIC: 3.13 µg/mL
S. aureus ATCC 33591; LYM broth, 1.5 mM MgCl2
  MIC: 3.13 µg/mL
S. aureus ATCC 33591; LYM broth, 2.5 mM MgCl2
  MIC: 3.13 µg/mL
S. aureus ATCC 33591; [4]
  MIC: 3.13 µg/mL
S. aureus ATCC 33591; [5]
  MIC: 3.13 µg/mL
S. aureus ATCC 33591; [6]
  MIC: 6.25 µg/mL
S. aureus ATCC 33591; [7]
  MIC: 6.25 µg/mL
S. aureus ATCC 33591; LYM broth, pH 4.5
  MIC: 3.13 µg/mL
S. aureus ATCC 33591; LYM broth, pH 5.5
  MIC: 3.13 µg/mL
S. aureus ATCC 33591; LYM broth, pH 6.5
  MIC: 3.13 µg/mL
S. aureus ATCC 33591; [8]
  MIC: 12.5 µg/mL
[2]; [3]
  MIC: 1.56 µg/mL
[2]; LYM broth, 0.5 mM MgCl2
  MIC: 1.56 µg/mL
[2]; LYM broth, 1.5 mM MgCl2
  MIC: 1.56 µg/mL
[2]; LYM broth, 2.5 mM MgCl2
  MIC: 3.13 µg/mL
[2]; [4]
  MIC: 1.56 µg/mL
[2]; [5]
  MIC: 1.56 µg/mL
[2]; [6]
  MIC: 3.13 µg/mL
[2]; [7]
  MIC: 6.25 µg/mL
[2]; LYM broth, pH 4.5
  MIC: 1.56 µg/mL
[2]; LYM broth, pH 5.5
  MIC: 1.56 µg/mL
[2]; LYM broth, pH 6.5
  MIC: 1.56 µg/mL
[2]; [8]
  MIC: 3.13 µg/mL
S. aureus ATCC 33592; [3]
  MIC: 3.13 µg/mL
S. aureus ATCC 33592; LYM broth, 0.5 mM MgCl2
  MIC: 3.13 µg/mL
S. aureus ATCC 33592; LYM broth, 1.5 mM MgCl2
  MIC: 3.13 µg/mL
S. aureus ATCC 33592; LYM broth, 2.5 mM MgCl2
  MIC: 3.13 µg/mL
S. aureus ATCC 33592; [4]
  MIC: 3.13 µg/mL
S. aureus ATCC 33592; [5]
  MIC: 3.13 µg/mL
S. aureus ATCC 33592; [6]
  MIC: 3.13 µg/mL
S. aureus ATCC 33592; [7]
  MIC: 6.25 µg/mL
S. aureus ATCC 33592; LYM broth, pH 4.5
  MIC: 3.13 µg/mL
S. aureus ATCC 33592; LYM broth, pH 5.5
  MIC: 3.13 µg/mL
S. aureus ATCC 33592; LYM broth, pH 6.5
  MIC: 1.56 µg/mL
S. aureus ATCC 33592; [8]
  MIC: 6.25 µg/mL

## Ac-KKKWRKWLKWLAK-NH2 [Peptide W5K12]
[1]; Both Gram-positive and -negative bacteria, MH broth, MIC >50 µg/mL counted as 100 µg/mL
  GM G−/+ (geometric mean of the MIC values): 3.4 µg/mL
[1]
  Therapeutic Index (TI) G−/+: 12.4
[1]; 300 mM NaCl
  weakening of antibacterial efficacy (MIC): up to 4 fold
[1]; MgCl2 rising above 0.5 mM
  weakening of antibacterial efficacy (MIC): up to 2 fold
S. aureus ATCC 33593; [3]
  MIC: 3.13 µg/mL
S. aureus ATCC 33593; LYM broth, 0.5 mM MgCl2
  MIC: 3.13 µg/mL
S. aureus ATCC 33593; LYM broth, 1.5 mM MgCl2
  MIC: 3.13 µg/mL
S. aureus ATCC 33593; LYM broth, 2.5 mM MgCl2
  MIC: 3.13 µg/mL
S. aureus ATCC 33593; [4]
  MIC: 3.13 µg/mL
S. aureus ATCC 33593; [5]
  MIC: 3.13 µg/mL
S. aureus ATCC 33593; [6]
  MIC: 6.25 µg/mL
S. aureus ATCC 33593; [7]
  MIC: 12.5 µg/mL
S. aureus ATCC 33593; LYM broth, pH 4.5
  MIC: 3.13 µg/mL
S. aureus ATCC 33593; LYM broth, pH 5.5
  MIC: 1.56 µg/mL
S. aureus ATCC 33593; LYM broth, pH 6.5
  MIC: 1.56 µg/mL
S. aureus ATCC 33593; [8]
  MIC: 6.25 µg/mL
S. aureus ATCC 33591; [3]
  MIC: 3.13 µg/mL
S. aureus ATCC 33591; LYM broth, 0.5 mM MgCl2
  MIC: 3.13 µg/mL
S. aureus ATCC 33591; LYM broth, 1.5 mM MgCl2
  MIC: 3.13 µg/mL
S. aureus ATCC 33591; LYM broth, 2.5 mM MgCl2
  MIC: 3.13 µg/mL
S. aureus ATCC 33591; [4]
  MIC: 3.13 µg/mL
S. aureus ATCC 33591; [5]
  MIC: 3.13 µg/mL
S. aureus ATCC 33591; [6]
  MIC: 6.25 µg/mL
S. aureus ATCC 33591; [7]
  MIC: 12.5 µg/mL
S. aureus ATCC 33591; LYM broth, pH 4.5
  MIC: 3.13 µg/mL
S. aureus ATCC 33591; LYM broth, pH 5.5
  MIC: 3.13 µg/mL
S. aureus ATCC 33591; LYM broth, pH 6.5
  MIC: 3.13 µg/mL
S. aureus ATCC 33591; [8]
  MIC: 6.25 µg/mL
[2]; [3]
  MIC: 1.56 µg/mL
[2]; LYM broth, 0.5 mM MgCl2
  MIC: 1.56 µg/mL
[2]; LYM broth, 1.5 mM MgCl2
  MIC: 1.56 µg/mL
[2]; LYM broth, 2.5 mM MgCl2
  MIC: 3.13 µg/mL
[2]; [4]
  MIC: 1.56 µg/mL
[2]; [5]
  MIC: 3.13 µg/mL
[2]; [6]
  MIC: 6.25 µg/mL
[2]; [7]
  MIC: 12.5 µg/mL
[2]; LYM broth, pH 4.5
  MIC: 1.56 µg/mL
[2]; LYM broth, pH 5.5
  MIC: 1.56 µg/mL
[2]; LYM broth, pH 6.5
  MIC: 1.56 µg/mL
[2]; [8]
  MIC: 3.13 µg/mL
S. aureus ATCC 33592; [3]
  MIC: 3.13 µg/mL
S. aureus ATCC 33592; LYM broth, 0.5 mM MgCl2
  MIC: 3.13 µg/mL
S. aureus ATCC 33592; LYM broth, 1.5 mM MgCl2
  MIC: 3.13 µg/mL
S. aureus ATCC 33592; LYM broth, 2.5 mM MgCl2
  MIC: 3.13 µg/mL
S. aureus ATCC 33592; [4]
  MIC: 3.13 µg/mL
S. aureus ATCC 33592; [5]
  MIC: 3.13 µg/mL
S. aureus ATCC 33592; [6]
  MIC: 6.25 µg/mL
S. aureus ATCC 33592; [7]
  MIC: 12.5 µg/mL
S. aureus ATCC 33592; LYM broth, pH 4.5
  MIC: 3.13 µg/mL
S. aureus ATCC 33592; LYM broth, pH 5.5
  MIC: 3.13 µg/mL
S. aureus ATCC 33592; LYM broth, pH 6.5
  MIC: 1.56 µg/mL
S. aureus ATCC 33592; [8]
  MIC: 6.25 µg/mL
